Experimental data as given in patent US7608587B2, “Exendin 4 polypeptide fragment” (Changzhou Pharmaceutical Factory, priority 2005, dated 2009).

How the values were obtained:
Goto Kokizaki II rats = assay: insulin secretion stimulation in Goto Kokizaki II rats (ELISA); format: in vivo, rat; details: 5 μg subcutaneous, 0-45 minutes
Method: Six-month-old (470 g body weight) Goto Kokizaki II rats were taken for the operative procedure. The test animals were administrated by subcutaneous injection of Exendin 4 polypeptides in a dose of 5 μg, while the animals of control group only achieved physiological saline solution. 20 μl of blood samples were obtained from fasted animals at 0, 3, 5, 10, 15, 30 and 45 minutes time points respectively after administration of the test substance.

diabetic animal models = assay: hypoglycemic activity across the diabetic animal models of examples 3-7 (overall statement); format: in vivo; details: assays of examples 3, 4, 5, 6, 7
Description: The effect of hypoglycemic levels of the polypeptide in the present invention is validated with the routine methods in the art, such as the experiments of cell biology, the animal experiments, etc. In embodiments of the present invention, in order to overcome the limitations of the experiments in vitro, preferably employed diabetic animal models to assay the effect of hypoglycemic levels, such as db/db II diabetic mice, Goto-Kokizaki (GK) II type rat, diabetic KK mice, alloxan induced diabetic mice. These animal experiments indicate the Exendin 4 polypeptide fragment represented by formula (I) in the present invention, has a continuous effect of sustaining hypoglycemic activity in vivo and can be used for the diabetes treatment. KK type II diabetic mice (purchased from Shanghai Laboratory Animal Center, Chinese Academy of Sciences, China) with 50 g body weight are subjected to fasting for 2 hours, and are divided into four groups. Two groups are injected with 2 μg Exendin 4, the other two groups are injected with 2 μg Exendin 4 polypeptide fragment presented in the invention. Twenty microliter blood samples are obtained from fasted animals at 0, 0.5, 1, 2, 3, 4, 5 and 6 h time points respectively after administration of the test substance. The sustained hypoglycemic activity is analyzed by using the blood sugar assay kit (purchased from Shanghai Institute of Biological Products, China). The corresponding results of the Exendin 4 polypeptide fragments having the sequences of SEQ ID NO. 1, SEQ ID NO. 2, SEQ ID NO. 3, SEQ ID NO. 4, SEQ ID NO. 5, SEQ ID NO. 6, SEQ ID NO. 7, SEQ ID NO. 8, SEQ ID NO. 9, SEQ ID NO. 10, SEQ ID NO. 11 and SEQ ID NO. 12 are shown in FIG. 7, FIG. 2, FIG. 12, FIG. 17, FIG. 22, FIG. 27, FIG. 32, FIG. 37, FIG. 42, FIG. 47, FIG. 52 and FIG. 57 respectively. The db/db II diabetic mice (purchased from Shanghai Laboratory Animal Center, Chinese Academy of Sciences and Yangzhou University, China) with 50 g body weight are subjected to fasting for 2 hours, the test animals were administrated by subcutaneous injection of Exendin 4 polypeptide fragment in a dose of 2 μg. 20 μl blood samples were obtained from fasted animals at 0, 0.5, 1 and 2 hours time points respectively after administration of the test substance. The sustained hypoglycemic activity is analyzed by using the blood sugar assay kit (purchased from Shanghai Institute of Biological Products, China). The corresponding results of the Exendin 4 polypeptide fragments having the sequences of SEQ ID NO. 1, SEQ ID NO. 2, SEQ ID NO. 3, SEQ ID NO. 4, SEQ ID NO. 5, SEQ ID NO. 6, SEQ ID NO. 7, SEQ ID NO. 8, SEQ ID NO. 9, SEQ ID NO. 10, SEQ ID NO. 11 and SEQ ID NO. 12 are shown in FIG. 8, FIG. 3, FIG. 13, FIG. 18, FIG. 23, FIG. 28, FIG. 33, FIG. 38, FIG. 43, FIG. 48, FIG. 53, FIG. 58 respectively. Five-month-old (body weight 470 g) Goto Kokizaki diabetic rat (purchased from Shanghai Laboratory Animal Center, Chinese Academy of Sciences, China) are taken for the operative procedure. After subjecting to fasting for 2 hours, the test animals were administrated by intraperitoneal injection of 20% glucose in a dose of 1 ml and by subcutaneous injection of Exendin 4 polypeptide fragment in a dose of 5 μg. The control group received only glucose. Twenty microliter blood samples were obtained from fasted animals at 0, 0.5, 1 and 2 hours time points respectively after administration of the test substance. The sustained hypoglycemic activity is determined by using the blood sugar assay kit (purchased from Shanghai Institute of Biological Products, China). The curve 1 indicates the control group. The curve 2 indicates the administration group. Eight-week-old (20 g body weight) mice are taken for the operative procedure. Experimental diabetes in mice was induced by (16 mg/ml) 0.1 ml alloxan by tail vein injection. Animals are divided into five groups. 48 hours later, 2 μg Exendin 4 polypeptide fragment was injected. […]

| Substance | insulin secretion of the test group (Goto Kokizaki II rats) | hypoglycemic activity (in words) (diabetic animal models) |
| --- | --- | --- |
| SEQ ID NO. 62: solid phase Exendin 4 polypeptide variant of example 8; sequence not printed in the text (HGEGTYTSNLSKQMEEEAVKLFIEWLKNGGP; Exendin 4 polypeptide fragment) | recovered | significant hypoglycemic activity |
| SEQ ID NO. 64: solid phase Exendin 4 polypeptide variant of example 8; sequence not printed in the text (HGEGTYTSNLSKQMEEEAVKLFIEWLKNGP; Exendin 4 polypeptide fragment) | recovered | significant hypoglycemic activity |
| SEQ ID NO. 65: solid phase Exendin 4 polypeptide variant of example 8; sequence not printed in the text (HGEGTFTSNLSKQIEEEAVKLFIEWLKNGGP; Exendin 4 polypeptide fragment) | recovered | significant hypoglycemic activity |
| SEQ ID NO. 66: solid phase Exendin 4 polypeptide variant of example 8; sequence not printed in the text (HGEGTYTSNLSKQIEEEAVKLFIEWLKNGGP; Exendin 4 polypeptide fragment) | recovered | significant hypoglycemic activity |
| SEQ ID NO. 67: solid phase Exendin 4 polypeptide variant of example 8; sequence not printed in the text (HGEGTFTSNLSKQIEEEAVKLFIEWLKNGP; Exendin 4 polypeptide fragment) | recovered | significant hypoglycemic activity |
| SEQ ID NO. 68: solid phase Exendin 4 polypeptide variant of example 8; sequence not printed in the text (HGEGTYTSNLSKQIEEEAVKLFIEWLKNGP; Exendin 4 polypeptide fragment) | recovered | significant hypoglycemic activity |
| SEQ ID NO. 69: solid phase Exendin 4 polypeptide variant of example 8; sequence not printed in the text (HGEGTFTSNLSKQLEEEAVKLFIEWLKNGGP; Exendin 4 polypeptide fragment) | recovered | significant hypoglycemic activity |
| SEQ ID NO. 70: solid phase Exendin 4 polypeptide variant of example 8; sequence not printed in the text (HGEGTYTSNLSKQLEEEAVKLFIEWLKNGGP; Exendin 4 polypeptide fragment) | recovered | significant hypoglycemic activity |
| SEQ ID NO. 71: solid phase Exendin 4 polypeptide variant of example 8; sequence not printed in the text (HGEGTFTSNLSKQLEEEAVKLFIEWLKNGP; Exendin 4 polypeptide fragment) | recovered | significant hypoglycemic activity |
| SEQ ID NO. 72: solid phase Exendin 4 polypeptide variant of example 8; sequence not printed in the text (HGEGTYTSNLSKQLEEEAVKLFIEWLKNGP; Exendin 4 polypeptide fragment) | recovered | significant hypoglycemic activity |
